Patent US12398097B2, “WDR5-MYC inhibitors” (Vanderbilt University, priority 2019, dated 2025)

Biological target: WDR5 (Homo sapiens, UniProt P61964)
Experiment: Competition-based fluorescence polarization anisotropy assay
Conditions: binding to WDR5; displacement of FITC-labeled small molecule probe (analogous to Example J2 or HCH-25) or peptide probe FITC-AHx-SEEEIDVVSV; pH 6.0; Ki converted from IC50
Procedure, shortened: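 Competition fluorescence polarization anisotropy binding to WDR5 using a FITC-labeled peptide probe or a fluorescently labeled small-molecule probe. Buffer: 200 mM phosphate, 300 mM NaCl, 0.5 mM TCEP, 0.1% Chaps, pH 6.0. Displacement data were converted to Ki.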

`COCCNC(=O)c1cc(F)cc(NS(=O)(=O)c2cc(Br)ccc2O)c1O` [Example J110, 3-((5-Bromo-2-hydroxyphenyl)sulfonamido)-5-fluoro-2-hydroxy-N-(2-methoxyethyl)benzamide] was tested, and the Ki was 2260 nM.
Work on `O=C(NCCO)c1cc(F)cc(NS(=O)(=O)c2cc(Br)ccc2O)c1O` [Example J111, 3-((5-Bromo-2-hydroxyphenyl)sulfonamido)-5-fluoro-2-hydroxy-N-(2-hydroxyethyl)benzamide] yielded a Ki of 2930 nM.
`O=C(O)c1cc(C2CC2)cc(NS(=O)(=O)c2cc(Br)ccc2O)c1F` [Example J112, 3-((5-Bromo-2-hydroxyphenyl)sulfonamido)-5-cyclopropyl-2-fluorobenzoic acid] was tested, and the Ki was 780 nM.
For `O=C(O)c1cc(C2CC2)cc(NS(=O)(=O)c2cc(Br)cc3cccnc23)c1F` [Example J113, 3-((6-Bromoquinoline)-8-sulfonamido)-5-cyclopropyl-2-fluorobenzoic acid], the Ki was 1710 nM.
With `O=C(O)c1cc(NS(=O)(=O)c2cc(Br)ccc2O)cc(C2CC2)c1F` [Example J114, 5-((5-Bromo-2-hydroxyphenyl)sulfonamido)-3-cyclopropyl-2-fluorobenzoic acid] the Ki was 520 nM.
Work on `O=C(O)c1c(O)c(NS(=O)(=O)c2cc(Br)ccc2O)cc(C2CC2)c1F` [Example J117, 3-((5-Bromo-2-hydroxyphenyl)sulfonamido)-5-cyclopropyl-6-fluoro-2-hydroxybenzoic acid] yielded a Ki of 30 nM.
`O=C(O)c1c(O)c(NS(=O)(=O)c2cc(Br)cc(Cl)c2O)cc(C2CC2)c1F` [Example J118, 3-((5-Bromo-3-chloro-2-hydroxyphenyl)sulfonamido)-5-cyclopropyl-6-fluoro-2-hydroxybenzoic acid] was tested, and the Ki was 350 nM.
`O=C(O)c1c(O)c(NS(=O)(=O)c2cc(Br)cc(F)c2O)cc(C2CC2)c1F` [Example J119, 3-((5-Bromo-3-fluoro-2-hydroxyphenyl)sulfonamido)-5-cyclopropyl-6-fluoro-2-hydroxybenzoic acid] was tested, and the Ki was 130 nM.
`NC(=O)c1c(O)c(NS(=O)(=O)c2cc(Br)ccc2O)cc(C2CC2)c1F` [Example J123, 3-((5-Bromo-2-hydroxyphenyl)sulfonamido)-5-cyclopropyl-6-fluoro-2-hydroxybenzamide] was tested, and the Ki was 360 nM.
In the case of `CNC(=O)c1c(O)c(NS(=O)(=O)c2cc(Br)ccc2O)cc(C2CC2)c1F` [Example J124, 3-((5-Bromo-2-hydroxyphenyl)sulfonamido)-5-cyclopropyl-6-fluoro-2-hydroxy-N-methylbenzamide], the Ki is reported as 280 nM.
Molecule `O=C(NCCN1CCOCC1)c1c(O)c(NS(=O)(=O)c2cc(Br)ccc2O)cc(C2CC2)c1F` [Example J125, 3-((5-Bromo-2-hydroxyphenyl)sulfonamido)-5-cyclopropyl-6-fluoro-2-hydroxy-N-(2-morpholinoethyl)benzamide] has a Ki of 1320 nM.
`O=C(NCCO)c1c(O)c(NS(=O)(=O)c2cc(Br)ccc2O)cc(C2CC2)c1F` [Example J126, 3-((5-Bromo-2-hydroxyphenyl)sulfonamido)-5-cyclopropyl-6-fluoro-2-hydroxy-N-(2-hydroxyethyl)benzamide] gave a Ki of 770 nM.
`COCCNC(=O)c1c(O)c(NS(=O)(=O)c2cc(Br)ccc2O)cc(C2CC2)c1F` [Example J127, 3-((5-Bromo-2-hydroxyphenyl)sulfonamido)-5-cyclopropyl-6-fluoro-2-hydroxy-N-(2-methoxyethyl)benzamide] was tested, and the Ki was 1970 nM.
`O=C(NC1COC1)c1c(O)c(NS(=O)(=O)c2cc(Br)ccc2O)cc(C2CC2)c1F` [Example J128, 3-((5-Bromo-2-hydroxyphenyl)sulfonamido)-5-cyclopropyl-6-fluoro-2-hydroxy-N-(oxetan-3-yl)benzamide] gave a Ki of 700 nM.
For `O=C(NC1CCOC1)c1c(O)c(NS(=O)(=O)c2cc(Br)ccc2O)cc(C2CC2)c1F` (stereo not drawn) [Example J131, 3-((5-Bromo-2-hydroxyphenyl)sulfonamido)-5-cyclopropyl-6-fluoro-2-hydroxy-N-(tetrahydrofuran-3-yl)benzamide], the Ki was 2990 nM.
For `O=C(N[C@@H]1CCOC1)c1c(O)c(NS(=O)(=O)c2cc(Br)ccc2O)cc(C2CC2)c1F` [Example J132, (R)-3-((5-Bromo-2-hydroyphenyl)sulfonamido)-5-cyclopropyl-6-fluoro-2-hydroxy-N-(tetrahydrofuran-3-yl)benzamide], the Ki was 2450 nM.
`O=C(N[C@H]1CCOC1)c1c(O)c(NS(=O)(=O)c2cc(Br)ccc2O)cc(C2CC2)c1F` [Example J133, (S)-3-((5-Bromo-2-hydroxyphenyl)sulfonamido)-5-cyclopropyl-6-fluoro-2-hydroxy-N-(tetrahydrofuran-3-yl)benzamide] was tested, and the Ki was 4510 nM.
`CNC(=O)c1cc(NS(=O)(=O)c2cc(Br)ccc2O)cc(C2CC2)c1F` [Example J135, 5-((5-Bromo-2-hydroxyphenyl)sulfonamido)-3-cyclopropyl-2-fluoro-N-methylbenzamide] showed a Ki of 690 nM.
For `COCCNC(=O)c1cc(NS(=O)(=O)c2cc(Br)ccc2O)cc(C2CC2)c1F` [Example J136, 5-((5-Bromo-2-hydroxyphenyl)sulfonamido)-3-cyclopropyl-2-fluoro-N-(2-methoxyethyl)benzamide], the Ki was 1110 nM.
Molecule `O=C(NCCN1CCOCC1)c1cc(NS(=O)(=O)c2cc(Br)ccc2O)cc(C2CC2)c1F` [Example J137, 5-((5-Bromo-2-hydroxyphenyl)sulfonamido)-3-cyclopropyl-2-fluoro-N-(2-morpholinoethyl)benzamide] has a Ki of 2980 nM.
`O=C(NC1COC1)c1cc(NS(=O)(=O)c2cc(Br)ccc2O)cc(C2CC2)c1F` [Example J138, 5-((5-Bromo-2-hydroxyphenyl)sulfonamido)-3-cyclopropyl-2-fluoro-N-(oxetan-3-yl)benzamide] showed a Ki of 4750 nM.
For `O=C(NC1CCOC1)c1cc(NS(=O)(=O)c2cc(Br)ccc2O)cc(C2CC2)c1F` (stereo not drawn) [Example J139, 5-((5-Bromo-2-hydroxyphenyl)sulfonamido)-3-cyclopropyl-2-fluoro-N-(tetrahydrofuran-3-yl)benzamide], the Ki was 12200 nM.
Molecule `CNC(=O)c1cc(C2CC2)cc(NS(=O)(=O)c2cc(Br)ccc2O)c1F` [Example J141, 3-((5-Bromo-2-hydroxyphenyl)sulfonamido)-5-cyclopropyl-2-fluoro-N-methylbenzamide] has a Ki of 960 nM.
`COCCNC(=O)c1cc(C2CC2)cc(NS(=O)(=O)c2cc(Br)ccc2O)c1F` [Example J142, 3-((5-Bromo-2-hydroxyphenyl)sulfonamido)-5-cyclopropyl-2-fluoro-N-(2-methoxyethyl)benzamide] showed a Ki of 1480 nM.
`O=C(NCCN1CCOCC1)c1cc(C2CC2)cc(NS(=O)(=O)c2cc(Br)ccc2O)c1F` [Example J143, 3-((5-Bromo-2-hydroxyphenyl)sulfonamido)-5-cyclopropyl-2-fluoro-N-(2-morpholinoethyl)benzamide] gave a Ki of 2540 nM.
With `O=C(NC1COC1)c1cc(C2CC2)cc(NS(=O)(=O)c2cc(Br)ccc2O)c1F` [Example J144, 3-((5-Bromo-2-hydroxyphenyl)sulfonamido)-5-cyclopropyl-2-fluoro-N-(oxetan-3-yl)benzamide] the Ki was 6760 nM.
For `CNC(=O)c1c(O)c(NS(=O)(=O)c2cc(Br)cc(Cl)c2O)cc(C2CC2)c1F` [Example J146, 3-((5-Bromo-3-chloro-2-hydroxyphenyl)sulfonamido)-5-cyclopropyl-6-fluoro-2-hydroxy-N-methylbenzamide], the Ki was 40 nM.
`COCCNC(=O)c1c(O)c(NS(=O)(=O)c2cc(Br)cc(Cl)c2O)cc(C2CC2)c1F` [Example J147, 3-((5-Bromo-3-chloro-2-hydroxyphenyl)sulfonamido)-5-cyclopropyl-6-fluoro-2-hydroxy-N-(2-methoxyethyl)benzamide] gave a Ki of 230 nM.
In the case of `O=C(NCCN1CCOCC1)c1c(O)c(NS(=O)(=O)c2cc(Br)cc(Cl)c2O)cc(C2CC2)c1F` [Example J148, 3-((5-Bromo-3-chloro-2-hydroxyphenyl)sulfonamido)-5-cyclopropyl-6-fluoro-2-hydroxy-N-(2-morpholinoethyl)benzamide], the Ki is reported as 600 nM.
Molecule `O=C(NC1COC1)c1c(O)c(NS(=O)(=O)c2cc(Br)cc(Cl)c2O)cc(C2CC2)c1F` [Example J149, 3-((5-Bromo-3-chloro-2-hydroxyphenyl)sulfonamido)-5-cyclopropyl-6-fluoro-2-hydroxy-N-(oxetan-3-yl)benzamide] has a Ki of 710 nM.
`CNC(=O)c1c(O)c(NS(=O)(=O)c2cc(Br)cc(F)c2O)cc(C2CC2)c1F` [Example J150, 3-((5-Bromo-3-fluoro-2-hydroxyphenyl)sulfonamido)-5-cyclopropyl-6-fluoro-2-hydroxy-N-methylbenzamide] was tested, and the Ki was 920 nM.
Work on `CNC(=O)c1cc(NS(=O)(=O)c2cc(Br)cc(Cl)c2O)cc(C2CC2)c1F` [Example J151, 5-((5-Bromo-3-chloro-2-hydroxyphenyl)sulfonamido)-3-cyclopropyl-2-fluoro-N-methylbenzamide] yielded a Ki of 210 nM.
With `COCCNC(=O)c1cc(NS(=O)(=O)c2cc(Br)cc(Cl)c2O)cc(C2CC2)c1F` [Example J152, 5-((5-Bromo-3-chloro-2-hydroxyphenyl)sulfonamido)-3-cyclopropyl-2-fluoro-N-(2-methoxyethyl)benzamide] the Ki was 320 nM.
`O=C(NCCN1CCOCC1)c1cc(NS(=O)(=O)c2cc(Br)cc(Cl)c2O)cc(C2CC2)c1F` [Example J153, 5-((5-Bromo-3-chloro-2-hydroxyphenyl)sulfonamido)-3-cyclopropyl-2-fluoro-N-(2-morpholinoethyl)benzamide] gave a Ki of 440 nM.
Work on `O=C(Nc1nc[nH]n1)c1cc(NS(=O)(=O)c2cc(Br)cc(Cl)c2O)cc(C2CC2)c1F` [Example J154, 5-((5-Bromo-3-chloro-2-hydroxyphenyl)sulfonamido)-3-cyclopropyl-2-fluoro-N-(1H-1,2,4-triazol-3-yl)benzamide] yielded a Ki of 130 nM.
Molecule `O=C(NC1COC1)c1cc(NS(=O)(=O)c2cc(Br)cc(Cl)c2O)cc(C2CC2)c1F` [Example J155, 5-((5-Bromo-3-chloro-2-hydroxyphenyl)sulfonamido)-3-cyclopropyl-2-fluoro-N-(oxetan-3-yl)benzamide] has a Ki of 330 nM.
